Where two headings read alike, the source gives them in different places.
Legend:
[1] = tested on: cannabinoid receptor; conditions: cited from earlier work
[2] = tested on: mice; conditions: cited from earlier work
[3] = Inventor experimentation: intermuscular injection of tetrahydrocannabinol, incapacitation; assay type: in vivo, human; conditions: intermuscular injection of 5.0 mg; overall healthy, 100 kg person
Experimental: If it is unnecessary to “immediately”, or to “near-immediately”, incapacitate a recipient, the inventive formulation may strictly consist of cannabinoids such as tetrahydrocannabinol. During instant inventor experimentation, an intermuscular injection of 5.0 mg of tetrahydrocannabinol rendered an overall healthy, 100 kg person, fully incapacitated within 10-30 seconds, with its effects lasting approximately four-to-six hours.

[4] = tested on: dog; conditions: cited from earlier work
[5] = tested on: laboratory animals; conditions: cited from earlier work
[6] = tested on: dogs; conditions: cited from earlier work
[7] = tested on: monkeys; conditions: cited from earlier work
[8] = tested on: rats; conditions: cited from earlier work
[9] = tested on: monkeys; experiment: Repeated intravenous study with emulsified tetrahydrocannabinol in monkeys; assay type: in vivo; conditions: near-pure tetrahydrocannabinol
Experimental: Subsequently, intravenous studies were repeated using tetrahydrocannabinol emulsified in a sesame oil, polysorbate 80, or saline vehicles at 15 mg/ml or 40 mg/ml. The emulsions were administered at a uniform rate of 2 ml/15 sec. Doses administered were 1, 4, 16, 64, 92, 128, 192 and 256 mg/kg. All monkeys injected with 92 mg/kg or less survived and completely recovered from all effects within two to four days. An analogous intravenous dosage for a 100 kg human would be 9,200 mg (9.2 g) of near-pure tetrahydrocannabinol. All monkeys injected with 128 mg/kg or more succumb within thirty minutes for all but one subject, which took one-hundred-and-eighty minutes to expire. An analogous lethal intravenous dosage for a 100 kg human would be 12,800 mg (12.8 g) of near-pure tetrahydrocannabinol.
Histopathological changes found in the lungs of the deceased monkeys were like those described after the previous intravenous experiment. […] Behavioral changes preceding death were salivation, prostration, coma, and tremors.
Behavioral and physiological changes described clinically in the surviving monkeys followed a consistent developmental sequence and were roughly dose related in severity and duration. Onset was fifteen minutes following injection and duration was up to forty-eight hours. Huddled posture and lethargy were the most persistent changes. Constipation, anorexia, and weight loss were noted. […]

[10] = tested on: monkey; conditions: cited from earlier work
[11] = tested on: monkeys; conditions: cited from earlier work; remark: listed apart in the source
[12] = intravenous emulsion 15 or 40 mg/ml, 2 ml/15 sec

CCCCCCC(C)(C)c1ccc([C@@H]2C[C@H](O)CC[C@H]2CCCO)c(O)c1 [CP-55940]
potency relative to phyto-cannabinoid THC [1]: many times more potent

CCCCCc1cc(O)c2c(c1)OC(C)(C)[C@@H]1CCC(C)=C[C@@H]21 [tetrahydrocannabinol]
LD50 dose [2]: 28.6 mg per 42.47 kg of body weight
duration of effects [3]: four-to-six
time to full incapacitation [3]: 10 to 30 s
nonlethal oral consumption [4]: 3 g/kg
lowest intravenous dosage which causes death ([5]; intravenous): approximately 1000 mg per kg of body weight
typical lethal oral dosage ([5]; oral): 225-450 mg per kg of body weight
time to complete recovery of survivors ([6]; dogs that survived the intravenous injection): five to nine
minimal lethal intravenous dose ([6]; dogs, depending upon concentration): 25 to 99 mg/kg
time to lethality after intravenous injection ([6]; dogs, intravenous): within minutes
acute one dose LD50 ([6]; intravenous, dogs): 100 mg/kg
acute one dose LD50 ([7]; intravenous, monkeys, depending on concentration of the solution): 15.6 to 62.5 mg/kg
time to complete recovery of survivors ([7]; monkeys that survived the intravenous injection): five to nine
minimal lethal intravenous dose ([7]; monkeys, depending upon concentration): 3.9 to 15.5 mg/kg
time to lethality after intravenous injection ([7]; monkeys, intravenous): within minutes
LD50 dose [8]: 28.6 mg per 42.47 kg of body weight
time to lethality after intravenous injection ([8]; intravenous): within minutes
analogous intravenous dosage for a 100 kg human (survived dose) ([9]; extrapolated from 92 mg/kg in monkeys): 9,200 mg
analogous lethal intravenous dosage for a 100 kg human ([9]; extrapolated from 128 mg/kg in monkeys): 12,800 mg
nonlethal oral consumption [10]: 3 g/kg
fatalities ([11]; 92 mg/kg intravenously, monkeys): no fatalities
time to death ([11]; 128 mg/kg or more, the one remaining subject): one-hundred-and-eighty
dose at which all monkeys succumb [11, 12]: ≥ 128 mg/kg
dose at which all monkeys survived [11, 12]: ≤ 92 mg/kg
time to complete recovery from all effects ([11]; monkeys injected with 92 mg/kg or less): two to four
time to death ([11]; monkeys injected with 128 mg/kg or more, all but one subject): thirty
time to severe respiratory depression and bradycardia after injection ([11]; monkeys that died): five
duration of behavioral and physiological changes ([11]; surviving monkeys): up to forty-eight
onset of behavioral and physiological changes following injection ([11]; surviving monkeys): fifteen
time of maximal hypothermia, bradycardia and decreased respiratory rate post injection ([11]; surviving monkeys): two-to-six

CCCCCCC(C)(C)c1cc(O)c2c(c1)OC(C)(C)[C@@H]1CC=C(CO)C[C@@H]21 [HU-210]
potency relative to phyto-cannabinoid THC [1]: about 100 times

— patent US9585867B2, “Cannabinod formulation for the sedation of a human or animal” (priority 2015, dated 2017)
